Literature values, collected in US20090062391A1, “Use of a virucidal ointment in the nares for prevention of transmission and contraction of common colds” (priority 2007, published 2009).

How the values were obtained:
[1] = test system: viruses which cause colds; conditions: for effectiveness against viruses which cause colds: organic acid; for effectiveness at inactivating cold viruses: surfactant combined with organic acids
herpes simplex virus = conditions: Poli et al. [5]
rhabdovirus = conditions: Poli et al. [5]
adenovirus = conditions: Poli et al. [5]; only naked virus tested
rhinovirus [2] = conditions: Hendley et al. [4]
rhinovirus [3] = conditions: hand lotions containing 2% glutaric acid, versus placebo; Hayden et al. [6]
[4] = frequent application
common colds = conditions: in vivo

Compound: N[C@@H](CC(=O)O)C(=O)O [aspartic acid]
- effectiveness against viruses which cause colds [1]: effective

Compound: O=C(O)CC(O)(CC(=O)O)C(=O)O [citric acid]
- antiviral activity against herpes simplex virus (herpes simplex virus): effective
- antiviral activity against rhabdovirus (rhabdovirus): effective
- antiviral activity against adenovirus (adenovirus): not effective
- effectiveness against viruses which cause colds [1]: effective

Compound: CCO [ethyl alcohol]
- antiviral activity (rhinovirus [2]): performed poorly

Compound: O=C(O)CCCC(=O)O [glutaric acid]
- inactivating certain serotypes of rhinovirus (rhinovirus [3]): more effective than placebo

Compound: O=C(O)CO [glycolic acid]
- effectiveness against viruses which cause colds [1]: effective

Compound: II [iodine]
- irritation of the skin [4]: too irritating to the skin

Compound: CC(O)C(=O)O (centres unmarked) [lactic acid]
- effectiveness against viruses which cause colds [1]: effective

Compound: O=C(O)CC(O)C(=O)O (centres unmarked) [malic acid]
- antiviral activity against herpes simplex virus (herpes simplex virus): effective
- antiviral activity against rhabdovirus (rhabdovirus): effective
- antiviral activity against adenovirus (adenovirus): not effective
- effectiveness against viruses which cause colds [1]: effective

Compound: CCCCCCCCC(=O)O [pelargonic acid]
- effectiveness against viruses which cause colds [1]: effective

Compound: CC(=O)C(=O)O [pyruvic acid]
- antiviral activity against herpes simplex virus (herpes simplex virus): effective
- antiviral activity against rhabdovirus (rhabdovirus): effective
- antiviral activity against adenovirus (adenovirus): not effective

Compound: CCCCCCCCOC(=O)CC(C(=O)OCCCCCCCC)S(=O)(=O)O.[Na] (centres unmarked) [sodium dioctyl sulfosuccinate]
- effectiveness at inactivating cold viruses [1]: demonstrated effectiveness

Compound: CCCCCCCCCCCCOS(=O)(=O)[O-].[Na+] [sodium dodecyl sulfate]
- effectiveness at inactivating cold viruses [1]: demonstrated effectiveness

Compound: O=C(O)CCC(=O)O [succinic acid]
- antiviral activity against herpes simplex virus (herpes simplex virus): effective
- antiviral activity against rhabdovirus (rhabdovirus): effective
- antiviral activity against adenovirus (adenovirus): not effective

Compound: CCCCC(=O)O [valeric acid]
- effectiveness against viruses which cause colds [1]: effective

Compound: [Zn] [zinc]
- duration of common colds (common colds): shorten the duration

Compound: benzalkonium chloride
- antiviral activity (rhinovirus [2]): performed poorly
